Laboratory results: ChEMBL document CHEMBL1275276, “Analysis of physico-chemical properties of substrates of ABC and MFS multidrug transporters of pathogenic Candida albicans” (2010)
Calls of active or inactive are those of the source. The rule behind the calls is not given here.

Legend:
[1] = system: Saccharomyces cerevisiae; experiment: Antifungal activity against yeast AD1-8u expressing Candida albicans CaMdr1p by agar disk diffusion assay; format: functional; note: test concentration or dose not given here
[2] = system: Saccharomyces cerevisiae; experiment: Antifungal activity against yeast AD1-8u expressing Candida albicans CaCdr1p by agar disk diffusion assay; format: functional
[3] = system: Candida albicans; experiment: Binding affinity to Candida albicans CaMdr1p expressed in yeast AD1-8u
[4] = system: Candida albicans; experiment: Binding affinity to Candida albicans CaCdr1p expressed in yeast AD1-8u
Throughout, for IZ: test concentration or dose not given here.

| SMILES | inhibition zone (IZ) [1] | inhibition zone (IZ) [2] | Activity [3] | Activity [4] |
| --- | --- | --- | --- | --- |
| COc1ccc2c3c([nH]c2c1)[C@H](C=C(C)C)N1C(=O)[C@@H]2CCCN2C(=O)[C@@H]1C3 [FUMITREMORGIN] | 0 cm | 0 cm | inactive | inactive |
| CCCCNC(=O)n1c(NC(=O)OC)nc2ccccc21 [BENOMYL] | 0.4 cm | 0.9 cm | Active | Active |
| CON(C)C(=O)Nc1ccc(Br)c(Cl)c1 [CHLORBROMURON] | 0.1 cm | 0.9 cm | inactive | Active |
| COc1cc2ncnc(Nc3ccc(F)c(Cl)c3)c2cc1OCCCN1CCOCC1 [GEFITINIB] | 0.2 cm |  | inactive | Active |
| CCCCCCCCCCCC(=O)OCCN(CC)CC | 0.7 cm | 0.2 cm | Active | inactive |
| CC/C(=C(\c1ccccc1)c1ccc(OCCN(C)C)cc1)c1ccccc1 [TAMOXIFEN] | 0.2 cm | 0.7 cm | inactive | Active |
| C[C@@H](c1ncncc1F)[C@](O)(Cn1cncn1)c1ccc(F)cc1F [VORICONAZOLE] | 0.8 cm | 1.9 cm | Active | Active |
| O=c1c(O)c(-c2ccc(O)c(O)c2)oc2cc(O)cc(O)c12 [QUERCETIN] | 0 cm | 0 cm | inactive | inactive |
| c1ccc(C(c2ccccc2)(c2ccccc2)c2ncc[nH]2)cc1 [TRITYL IMIDAZOLE] | 0 cm | 1.3 cm | inactive | Active |
| C[C@@H]1O[C@@H](O[C@H]2C[C@@H](O)[C@]3(CO)[C@H]4[C@H](O)C[C@]5(C)[C@@H](C6=CC(=O)OC6)CC[C@]5(O)[C@@H]4CC[C@]3(O)C2)[C@H](O)[C@H](O)[C@H]1O [OUABAIN] | 0 cm | 0 cm | inactive | inactive |
| NC[C@H]1O[C@H](O[C@H]2[C@H](O)[C@@H](O[C@H]3O[C@H](CO)[C@@H](O)[C@H](N)[C@H]3O)[C@H](N)C[C@@H]2N)[C@H](O)[C@@H](O)[C@@H]1O [KANAMYCIN] | 0.3 cm | 0.1 cm | Active | inactive |
| COc1c(C)c2c(c(O)c1C/C=C(\C)CCC(=O)O)C(=O)OC2 [MYCOPHENOLIC ACID] | 0 cm | 0 cm | inactive | inactive |
| CCC(C)n1ncn(-c2ccc(N3CCN(c4ccc(OCC5COC(Cn6cncn6)(c6ccc(Cl)cc6Cl)O5)cc4)CC3)cc2)c1=O (configuration not stated) [ITRACONAZOLE] | 0 cm | 1.1 cm | inactive | Active |
| CCCCCCCCCCCC[N+](C)(C)CCCS(=O)(=O)[O-] | 0.8 cm | 0.2 cm | Active | inactive |
| CC(=O)Nc1c2sscc-2n(C)c1=O [THIOLUTIN] | 0.7 cm | 0 cm | Active | inactive |
| CC(=O)N1CCN(c2ccc(OCC3COC(Cn4ccnc4)(c4ccc(Cl)cc4Cl)O3)cc2)CC1 (configuration not stated) [KETOCONAZOLE] |  | 1.4 cm |  | Active |
| CN[C@H]1C[C@@H](N)[C@H](O)[C@@H](O[C@@H]2O[C@H](CO)[C@H](O)[C@H]3O[C@@]4(O[C@H]23)O[C@H]([C@H](N)CO)[C@H](O)[C@H](O)[C@H]4O)[C@@H]1O | 0 cm | 0 cm | inactive | inactive |
| CN(C)C(=O)Nc1ccc(Cl)c(Cl)c1 [DCMU] | 0.8 cm | 0.8 cm | Active | Active |
| COc1cc([C@@H]2c3cc4c(cc3[C@@H](O[C@@H]3O[C@@H]5CO[C@@H](C)O[C@H]5[C@H](O)[C@H]3O)[C@H]3COC(=O)[C@H]23)OCO4)cc(OC)c1O [ETOPOSIDE] | 0.3 cm | 1.5 cm | Active | Active |
| c1ccc(CNc2ncnc3[nH]cnc23)cc1 [6-BENZYLAMINOPURINE] | 0 cm | 0 cm | inactive | inactive |
| Clc1ccc(COC(Cn2ccnc2)c2ccc(Cl)cc2Cl)c(Cl)c1 (configuration not stated) [MICONAZOLE] | 0.2 cm | 0.5 cm | inactive | Active |
| N#CC(C#N)=NNc1cccc(Cl)c1 [CARBONYL CYANIDE M-CHLOROPHENYLHYDRAZONE] | 0 cm | 0 cm | inactive | inactive |
| CCC[C@@H]1C[C@@H](C(=O)N[C@@H]([C@H]2O[C@H](SC)[C@H](O)[C@@H](O)[C@H]2O)[C@@H](C)O)N(C)C1 [LINCOMYCIN] | 0 cm | 0 cm | inactive | inactive |
| CCN(CC)C(=S)SSC(=S)N(CC)CC | 0.3 cm | 0.4 cm | Active | Active |
| CC[C@]1(O)C[C@@H]2CN(CCc3c([nH]c4ccccc34)[C@@](C(=O)OC)(c3cc4c(cc3OC)N(C)[C@H]3[C@@](O)(C(=O)OC)[C@H](OC(C)=O)[C@]5(CC)C=CCN6CC[C@]43[C@@H]65)C2)C1 [VINBLASTINE] | 0 cm | 0.6 cm | inactive | Active |
| CCCCCCCCCCCCCC(=O)OCCN(C)C | 0 cm | 0 cm | inactive | inactive |
| c1c[nH]cn1 [IMIDAZOLE] | 0 cm | 0 cm | inactive | inactive |
| COc1cccc2c1C(=O)c1c(O)c3c(c(O)c1C2=O)C[C@@](O)(C(=O)CO)C[C@@H]3O[C@H]1C[C@H](N)[C@H](O)[C@H](C)O1 [DOXORUBICIN] | 0.3 cm | 0.4 cm | Active | Active |
| COC(=O)[C@@H]1[C@H]2C[C@H]3c4[nH]c5ccccc5c4CCN3C[C@@H]2CC[C@@H]1O.Cl [YOHIMBINE HYDROCHLORIDE] | 1.3 cm | 1.3 cm | Active | Active |
| CCCCCCCCCCCCn1cncn1 | 0.1 cm | 0.7 cm | inactive | Active |
